From US8293776B2, “Compositions and methods for treating inflammatory conditions of the bowel” (The Regents of the University of Michigan, priority 2008, dated 2012)
Entries after “also recorded” stand apart in the source; their conditions may differ.

What was measured:
[1] = Blood pressure and heart rate by tail-cuff in DSS mice after transanal treatment; assay type: in vivo, C57BL/6 mice; settings: day 6 of DSS; for systolic blood pressure change (Delta BP, post − pre treatment): 1 hour before and 2 hr after treatment; for heart rate change: compared with naïve group
Source text: Measurements of Blood Pressure and Heart Rate. […] The system was designed to perform all functions automatically, including a programmable routine of cuff inflation and deflation, analysis and assignment of pulse rate and blood pressure, and recording of data electronically. To avoid variations in blood pressures, results were expressed using % Delta Blood Pressure (percent change in systolic pressures prior to and after treatment). Heart rate was also expressed as the change in rate before and after final dosing of […] drug/placebo.

Ang I-infused dogs = settings: i.v., 1 mg/kg; cited from earlier work
[2] = system: mucosal RNA of regulatory factors associated with inflammatory bowel disease; test: Mucosal RNA of regulatory factors by RT-PCR, DSS mice, oral administration; assay type: in vivo; settings: oral therapy, 7 days
Experimental: Experiments were conducted during development of embodiments of the invention in order to determine if AT1a antagonists or derivatives thereof could treat signs and symptoms of inflammatory bowel disease (e.g., inflammatory conditions of the intestine) when administered orally. Materials and methods were used as described in Example 3 with the following exceptions. AT1a antagonists or derivatives thereof were suspended in water. Each dose was given via the oral route using a blunt tipped needle by gavage directly into the stomach of each mouse. Dosing was daily in a single administration over a period of seven days. Realtime PCR was utilized to measure the abundance of mucosal RNA of several regulatory factors associated with inflammatory bowel disease. Factors studied were: TNF-α(tumor necrosis factor-alpha); interleukin-1b (IL-1b); IL-6; IL-10; transforming growth factor-beta (TGF-b) and Foxp3 (a T-cell regulatory factor). […] Realtime PCR was also utilized to measure the abundance of mucosal RNA of several additional regulatory factors associated with inflammatory bowel disease. IL-12p40, the regulatory factor for interleukin-12 (IL-12), and a key regulator for the up-regulation of interferon gamma (IFN-g); IFN-g; […]

AT1a receptor [3] = settings: read-out: IC50 against the binding of Ang II to the AT1a receptor; cited from earlier work
[4] = mouse, in vivo
Source text: The scores were compared to the Naïve cohort.
Colonic mucosal and mesenteric blood flow measurements.

AT1a receptor [5] = molecular target: T1, AT1a receptor (Rattus norvegicus, UniProt P25095); test: Ang II-dependent NF-κB-luciferase reporter assay in HepG2-AR cells; assay type: cell-based; settings: Ang II 1 μM, 16 hours, Ang II alone = 100% induction, read-out: inhibition of NF-κB activation
T1 construct: expressed in transfected cells; host or cells: HepG2 (HepG2-AR), stably transfected
T1 sequence (P25095 1-359): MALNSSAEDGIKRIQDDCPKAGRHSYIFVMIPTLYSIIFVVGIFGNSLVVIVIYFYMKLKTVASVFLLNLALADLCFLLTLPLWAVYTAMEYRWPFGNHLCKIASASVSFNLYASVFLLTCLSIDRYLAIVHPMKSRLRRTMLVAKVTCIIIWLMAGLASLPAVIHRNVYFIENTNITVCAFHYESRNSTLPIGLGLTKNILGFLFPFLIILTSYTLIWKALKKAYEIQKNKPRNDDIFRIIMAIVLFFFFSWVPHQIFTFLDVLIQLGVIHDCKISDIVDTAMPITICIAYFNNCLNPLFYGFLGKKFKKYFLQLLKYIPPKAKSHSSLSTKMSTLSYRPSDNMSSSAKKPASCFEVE
Source text: In vitro assessment of AT1aR antagonism. […] This model makes use of the fact that Ang II-dependent stimulation of the AT1a receptor results in rapid activation of the NF-κB transcription factor. In this model, HepG2-AR cells, which stably express the AT1a receptor, were transiently transfected with an NF-κB-luciferase reporter plasmid and a control renilla plasmid (to correct for transfection efficiency). […] Cells were harvested and the luciferase/renilla ratio determined using the Promega Dual Luciferase Assay Kit. […] Loss of Ang II-dependent luciferase induction (measured by luminometer; LMax; Molecular Devices), due to the presence of receptor blockade was then calculated and used to indicate the extent of successful blockade of the AT1a receptor signaling pathway.
HepG2-AR cells, which stably express the AT1a receptor, were transiently transfected with an NF-κB-luciferase reporter plasmid and a control renilla plasmid (to correct for transfection efficiency). […] Cells were harvested and the luciferase/renilla ratio determined using a luciferase assay kit (e.g., Promega Dual Luciferase Assay Kit). […] The fold induction in the presence of varying doses of inhibitor was then converted to a percentage of this maximal induction.

DSS colitis mice = test: DSS colitis in mice, transanal treatment: body weight, fecal blood, histology, apoptosis; assay type: in vivo, C57BL/6 mice; settings: for weight loss after 7 days (body weight change, FIG. 10B): 2.5% DSS, DCL and Losartan 10× (2,500 μg per dose), Candesartan 1× (250 μg per dose), mean±SD, placebo −15.81±6.59; for weight loss after 7 days (body weight change, FIG. 10B) / period before developing heme positive stools: transanal daily; for weight loss after 1 week (percentage change from baseline body weight) / period before developing heme positive stools: DSS; for weight loss after 1 week (percentage change from baseline body weight): transanal daily 7 days, placebo 15.8±6.5, P<0.001 versus placebo; for period before developing heme positive stools: placebo 5.64±1.22 days
Experimental: Animals. Specific pathogen-free male, 8-week old C57BL/6 mice (Taconic Farms Inc, Germantown, N.Y.) were maintained in a 12-h night rhythm at 23° C. and a relative humidity of 40-60%. Animals were fed standard rodent chow (LabDiet 5001Rodent Diet, PMI Nutrition International, LLC, Brentwood, Mo.) ad libitum. All experiments were approved by the University Committee on Use and Care of Animals at the University of Michigan. Experimental colitis design. Dextran sodium sulfate (DSS) was administered through drinking water for 7 days. Mice were randomly divided into 5 groups. In the DSS+placebo group, mice were given […] (total volume 0.25 ml) each day as a control. […] A[…]-A were given at 10-fold higher doses (losartan and […]: 10 mg/kg/day, candesartan: 1 mg/kg/day) than typically given systemically, and daily dosing was continued for 7 days. The study drugs were administered using a blunt needle via the […] route. Testing conducted during development of embodiments of the invention characterized that this amount of drug evenly coated the entire colon. A separate group of mice contained naive mice as an additional control group which received plain drinking water ad libitum, and received only water (0.25 ml, […]) without AT 1 aR-A. Harvesting. Mice were euthanized 7 days after DSS by carbon dioxide asphyxiation. […] Formalin preserved sections of distal colon were preserved in paraffin, sectioned transversely (5 μm) and stained with hematoxylin and eosin (H&E). The remaining colon was immediately processed for mucosal cell isolation. Assessment of colitis. The body weight of each mouse, stool characteristics, and intestinal bleeding were recorded. All animals were evaluated daily. Occult bleeding was tested using a hemoccult-card test (Beckman Coulter Inc, Fullerton, Calif.). Histologic grading of colitis was performed in a masked fashion (investigator blinded to the study group) according to previously described methods. (See, e.g., Spencer et al., et al. Dig Dis Sci 2007; 52:1060-70). Crypt shortening and distortion, together with inflammatory infiltrative thickening of the lamina propria, were assigned a score 0 (normal) through 4 (complete loss of crypt, ulceration, and severe thickening of lamina propria). The individual colitis score (0-4) from four quadrants of a left-sided colonic section were summed, such that the maximum score for a given section was 16, and the minimum score was 0. The mean of at least 2 sections were assessed in this manner for each mouse. Epithelial cell apoptosis assays. A terminal deoxynucleotidyl transferase biotin-dUTP nick end labeling (TUNEL) staining method was used to detect apoptosis, according to manufacturer's instructions (APOPTAG PLUS Peroxidase InSitu Apoptosis Detection Kit, Chemicon International Inc, Temecula, Calif.), with slight modification. Slides were incubated with only one-third of the recommended concentration of TdT enzyme, in order to avoid over-staining. Assessment of apoptosis consisted of separate counting of all TUNEL positive EC in all well oriented crypts and villi separately, and dividing the total number of counted apoptotic cells per number of analyzed crypts and villi, respectively. Apoptotic Index in the region of villi is expressed as the number of TUNEL positive cells per one villus. The addition of both crypt and villus apoptotic indices is expressed as the apoptotic index per crypt-villus complex (at 20× magnification).

[6] = in vivo; cited from earlier work
AT1a receptor [7] = settings: cited from earlier work

colonic blood flow at the mucosal level [4]	mesenteric blood flow [4]	inhibition at 60 µM (AT1a receptor [5])	SMILES	systolic blood pressure change (Delta BP, post − pre treatment) [1]	systolic blood pressure change (Delta BP, post − pre treatment) ([1]; listed as Losartan)	heart rate change [1]	time a ≧20 mmHg drop in mean arterial blood pressure (MABP) was maintained (Ang I-infused dogs)	mucosal RNA of IL-12p40, IFN-g, IL-17, AT1aR and ADAM17 [2]	IC50 (AT1a receptor [3])	weight loss after 7 days (body weight change, FIG. 10B) (DSS colitis mice)	weight loss after 1 week (percentage change from baseline body weight) (DSS colitis mice)	period before developing heme positive stools (DSS colitis mice)	oral activity [6]	mucosal RNA of ADAM17 [2]	receptor blockade function compared with losartan (AT1a receptor [7])	systolic blood pressure change (Delta BP, post − pre treatment) ([1]; listed as Candesartan)	systolic blood pressure change (Delta BP, post − pre treatment) ([1]; listed as candasartan)
0.88±0.32	1.97±0.58	90%	CCCCc1nc(Cl)c(CO)n1Cc1ccc(-c2ccccc2-c2nn[nH]n2)cc1 [losartan]	significant decline in blood pressure	decline in systolic BP; also recorded: resulted in a decline	not significantly different	30 min	marked decline in several of these factors	50 nM	0.07±2.50%	0.07±2.50%	6.8 ± 2.7 days	–	–	–	–	–
failed to change	failed to change	–	CCCCc1ncc(CO)n1Cc1ccc(-c2ccccc2-c2nn[nH]n2)cc1 [DCL, des-chloro losartan]	did not significantly change BP; also recorded: no change in systolic blood pressure	–	not significantly different	–	–	–	−2.02±4.34%	2.02±4.34%	7.00 ± 1.4 days	lacks oral activity	marked decline in ADAM17	nearly the same receptor blockade function as losartan	–	–
0.92±0.20	1.56±0.33	–	CCOc1nc2cccc(C(=O)O)c2n1Cc1ccc(-c2ccccc2-c2nnn[nH]2)cc1 [candesartan]	decline in systolic BP	–	declined significantly	–	–	–	−0.63±1.63%	0.63±1.63%	8.0 ± 0.0 days	–	–	–	resulted in a decline	significant decline in blood pressure
